Reference: patent US20080113041A1, “CALCIUM SUPPLEMENTATION TO REDUCE PROSTATE CANCER RISK” (Trustees of Dartmouth College, priority 2001, published 2008)
Where two headings read alike, the source gives them in different places.

Key:
[1] = tested on: colorectal adenomas; conditions: cited from earlier work
[2] = tested on: prostate cancer; conditions: for men diagnosed with prostate cancer: 345 men randomized to calcium; for adjusted odds ratio for prostate cancer: calcium vs placebo, 1200 mg elemental calcium (as carbonate); for toxicity: four years of treatment, 3000 mg calcium carbonate
Protocol: To investigate this issue in a randomized study, we investigated the association between prostate cancer risk and treatment assignment in a large, double blind chemoprevention trial of calcium carbonate supplementation for the prevention of large bowel adenomas. Treatment was for four years in two randomized groups: placebo or 1200 mg elemental calcium (as carbonate).
The Calcium Polyp Prevention Study from which the data for this study were obtained involved six clinical centers: the Cleveland Clinic Foundation, Dartmouth-Hitchcock Medical Center, the University of Southern California/Southern California Permanente Medical Group, the University of Iowa, University of Minnesota, and the University of North Carolina Dartmouth was the coordinating center. Human subjects committees at each center approved the study protocol; an independent safety and data monitoring committee reviewed the study semi-annually.
Eligible patients were less than eighty years old, in good health, and without a history of familial polyposis, invasive large bowel cancer, malabsorption syndromes, or any condition which might be worsened by supplemental calcium. We aimed to randomize 860 subjects to have 80% power to detect a 25% reduction in […].
We reviewed data from 2,918 apparently eligible patients. […] We assigned these subjects to calcium or placebo using computer-generated random numbers, blocking by study center. […] Study tablets contained 3000 mg of calcium carbonate (1200 mg of elemental calcium); or, an identical-appearing cellulose/sucrose placebo. The trial was double-blind; neither subjects nor study staff were told the subjects' treatment assignments.
At enrollment and at the time of each of two follow-up colonoscopies, we obtained venous blood specimens in mineral-free tubes. Serum was initially stored at −20° C. or lower, pending shipment to Dartmouth for storage at −70° C. until analysis. At enrollment and the end of the study, we also assessed subjects' diet with a validated food frequency questionnaire (Block et al., Am. J. Epidemiol., 124:453-69, 1986). Every six months, we sent patients questionnaires regarding adherence to study agents; use of medications, over-the-counter drugs and nutritional supplements; and the occurrence of symptoms, illnesses, and hospitalizations. Recruitment into the study began in November 1988 and ended in April 1992. Follow-up ended in December 1996.
To summarize the association between prostate cancer and treatment assignment, we used Kaplan-Meier survival curves as well as odds ratios (OR's) and 95% CI's, computed using logistic regression with adjustment for age, clinical center, and baseline dietary calcium. OR's were calculated for the period from randomization to end of treatment and, to accommodate possible delays in cancer detection and/or latent treatment effects, for the period from randomization to end of treatment plus 12 months (i.e., five years).

[3] = tested on: prostate cancer; conditions: adjuvant arm after prostatic and pelvic radiation therapy; T3, N0, or any T, N1, M0 disease; 71% on observation arm, p=0.52; cited from earlier work
[4] = 913 subjects with at least one study examination, calcium carbonate 3 gm daily vs placebo

SMILES	adjusted ratio of the average numbers of adenomas [1, 4]	adjusted risk ratio of any adenoma recurrence [1, 4]	toxicity associated with supplementation ([1]; calcium carbonate 3 gm daily)	men diagnosed with prostate cancer ([2]; after five years of follow-up) [men]	men diagnosed with prostate cancer ([2]; after four years of follow-up) [men]	risk of prostate cancer ([2]; assignment to calcium supplementation vs placebo)	incidence of prostate cancer, Kaplan-Meier curves versus placebo ([2]; by year three of follow-up)	adjusted odds ratio for prostate cancer ([2]; five-year follow-up (end of treatment plus 12 months))	toxicity [2]	toxicity ([2]; listed as calcium carbonate)	adjusted odds ratio for prostate cancer ([2]; four-year treatment period, adjusted for age, clinical center, baseline dietary calcium)	actuarial overall 5-year survival rate [3] [%]
O=C([O-])[O-].[Ca+2] [calcium, calcium carbonate]	0.76	0.85	No toxicity	11	8	statistically significant reduction	lower incidence	0.43	without toxicity	minimal	0.54	–
CC(C)C[C@H](NC(=O)[C@@H](COC(C)(C)C)NC(=O)[C@H](Cc1ccc(O)cc1)NC(=O)[C@H](CO)NC(=O)[C@H](Cc1c[nH]c2ccccc12)NC(=O)[C@H](Cc1cnc[nH]1)NC(=O)[C@@H]1CCC(=O)N1)C(=O)N[C@@H](CCCNC(=N)N)C(=O)N1CCC[C@H]1C(=O)NNC(N)=O [goserelin]	–	–	–	–	–	–	–	–	–	–	–	75
